Experimental data taken from publication PMC3145970, “Specific CLK Inhibitors from a Novel Chemotype for Regulation of Alternative Splicing” (Chemistry & Biology, 2011).
“Also recorded” adds a separate entry of the source.

Key:
CLK1 = biological target: T1, CLK1 (Homo sapiens, UniProt P49759); test: Coupled-enzyme (PK/LDH) kinase inhibition assay; format: biochemical; details: 0.1 mM ATP, 25°C; average from three independent experiments
T1 construct: the kinase domains of human CLK1 (residues: 148–484 (C terminus)); hexahistidine tag (TEV-cleavable) (cleaved yes); made in house; host or cells: E. coli BL21(DE3)
T1 sequence (P49759 148-484): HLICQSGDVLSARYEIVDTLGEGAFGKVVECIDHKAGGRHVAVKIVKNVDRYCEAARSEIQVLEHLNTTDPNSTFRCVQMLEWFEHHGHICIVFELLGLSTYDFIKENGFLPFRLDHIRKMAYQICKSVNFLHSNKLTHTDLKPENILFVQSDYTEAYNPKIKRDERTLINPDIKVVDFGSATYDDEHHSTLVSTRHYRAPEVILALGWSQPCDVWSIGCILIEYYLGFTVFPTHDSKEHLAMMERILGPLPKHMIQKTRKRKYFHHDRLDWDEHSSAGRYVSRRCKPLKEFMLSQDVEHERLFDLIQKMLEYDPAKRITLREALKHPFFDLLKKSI
Experimental: The consensus peptide for CLK1 ([…]) and the DYRK1A substrate peptide ([…]-amide) were used as substrates at a concentration of 100 μM. Inhibitors, dissolved in DMSO, were added at the beginning of the preincubation period resulting in a final DMSO concentration of 2% in the assay. Kinetic analysis was performed by nonlinear regression fitting using GraphPad Prism 5 and least-squares fits to sigmoidal dose response curves with variable slope equation: Y=min+max−min/1+10^(logEC50−x)Hillslope, where max and min corresponds to maximal and minimal absorbance value.

[1] = system: phosphorylated SR proteins in HMEC-1 cells; test: SR protein phosphorylation, western blotting; format: cell-based, human
Experimental: Western blot analysis of samples from cell lysates of inhibited, stimulated, and unstimulated HMEC-1 cells were performed as previously described ([Szotowski et al., 2005]). For detection of phosphorylated SR proteins, monoclonal antibody mAb1H4 (Invitrogen GmbH, Karlsruhe, Germany) was used.

[2] = system: flTF and asHTF mRNA in HMEC-1 cells; test: TF isoform mRNA expression (RT-PCR)
Experimental: For inhibition experiments, HMEC-1 endothelial cells were switched to EC basal medium (without fetal calf serum) for 1 hr. […] Analysis of the TF isoform mRNA expression was done 1 hr post stimulation with TNF-α and assessment of the phosphorylation state of SR proteins by western blotting was performed 2 min post induction of the cells. Positive controls were stimulated only with TNF-α, and negative controls were untreated.

IC50 (CLK1)	SMILES	TNF-α-induced phosphorylation of SR proteins ([1]; HMEC-1, 10 μM inhibitor pretreatment, 10 ng/ml TNF-α, 2 min post stimulation)	Phosphorylation state of SR proteins, nonstimulated cells ([1]; HMEC-1, 10 μM inhibitor, basal conditions)	Dose response of SRp75 and SRp55 phosphorylation ([1]; TNF-α-stimulated HMEC-1, increasing inhibitor concentration)	TNF-α-induced mRNA expression of flTF and asHTF ([2]; HMEC-1, 10 μM inhibitor, 10 ng/ml TNF-α, 1 hr post stimulation)	Basal mRNA expression of flTF and asHTF ([2]; resting HMEC-1, 10 μM inhibitor)
8.9 ± 3 nM	Nc1nc(Nc2ccc(S(N)(=O)=O)cc2)nn1C(=S)Nc1c(F)cccc1F [K00546]	–	–	–	–	–
–	CCN1/C(=C/C(C)=O)Sc2ccc(OC)cc21 [TG003]	reduction of the TNF-α-induced increase in phosphorylation of all analyzed SR proteins	only reduced the phosphorylation of SRp20; also recorded: no effect on the phosphorylation state of other SR proteins	little effect on SRp75 and SRp55 phosphorylation	only slightly reduced mRNA expression in TNF-α-induced cells	reduced the basal expression of flTF and asHTF mRNA
